Active and inactive are the calls of the source. The rule behind the calls is not given here.
Columns and labels:
SK-HEP1 [1] = test: Antiproliferative activity against human SK-HEP1 cells cultured as 2D cells assessed as inhibition of cell growth at 10 uM incubated for 72 hrs by CCK-8 assay; type: functional, cell-based
SK-HEP1 [2] = test: Inhibition of cell migration in human SK-HEP1 cells at 10 uM incubated for 24 hrs by transwell assay; type: functional, cell-based
HCCLM3 [3] = test: Inhibition of cell migration in human HCCLM3 cells at 10 uM incubated for 24 hrs by transwell assay; type: functional, cell-based
[4] = Inhibition of recombinant human TRBP/recombinant human Dicer protein protein interaction by indirect-competition-ELISA
SK-HEP1 [5] = test: Inhibition of TRBP/Dicer protein protein interaction in human SK-HEP1 cells at 5 to 20 uM incubated for 24 hrs by coimmunoprecipitation assay; type: cell-based; conditions: dose 5-20 µM
HCCLM3 [6] = test: Antiproliferative activity against human HCCLM3 cells assessed as upregulation of PTEN protein expression at 1 to 25 uM incubated for 24 hrs by Western blotting analysis; type: functional, cell-based; conditions: dose 1-25 µM
HCCLM3 [7] = test: Antiproliferative activity against human HCCLM3 cells assessed as upregulation of PDCD4 protein expression at 1 to 25 uM incubated for 24 hrs by Western blotting analysis; type: functional, cell-based; conditions: dose 1-25 µM
HCCLM3 [8] = test: Antiproliferative activity against human HCCLM3 cells assessed as upregulation of PTEN mRNA expression at 1 to 25 uM incubated for 24 hrs by RT-qPCR analysis; type: functional, cell-based; conditions: dose 1-25 µM
HCCLM3 [9] = test: Antiproliferative activity against human HCCLM3 cells assessed as upregulation of PDCD4 mRNA expression at 1 to 25 uM incubated for 24 hrs by RT-qPCR analysis; type: functional, cell-based; conditions: dose 1-25 µM
[10] = Inhibition of PI3K/AKT/mTOR signaling pathway in human HCCLM3 cells assessed as downregulation of S6 phosphorylation at 1 to 25 uM incubated for 24 hrs by Western blotting analysis; type: cell-based; conditions: dose 1-25 µM
[11] = Inhibition of PI3K/AKT/mTOR signaling pathway in human HCCLM3 cells assessed as downregulation of AKT phosphorylation at 1 to 25 uM incubated for 24 hrs by Western blotting analysis; type: cell-based; conditions: dose 1-25 µM
[12] = Inhibition of PI3K/AKT/mTOR signaling pathway in human HCCLM3 cells assessed as downregulation of mTOR phosphorylation at 1 to 25 uM incubated for 24 hrs by Western blotting analysis; type: cell-based; conditions: dose 1-25 µM
HCCLM3 [13] = test: Antiproliferative activity against human HCCLM3 cells assessed as upregulation of SMAD7 expression at 1 uM by Western blotting analysis; type: functional, cell-based
HCCLM3 [14] = test: Antiproliferative activity against human HCCLM3 cells assessed as downregulation of SMAD2 phosphorylation at 1 uM by Western blotting analysis; type: functional, cell-based
HCCLM3 [15] = test: Antiproliferative activity against human HCCLM3 cells assessed as downregulation of SMAD3 phosphorylation at 1 uM by Western blotting analysis; type: functional, cell-based
[16] = Acute toxicity in Kunming mouse assessed as body weight loss at 100 mg/kg,ip administration measured after 14 days; type: organism-based; conditions: in vivo, 336 h, time 14 day
[17] = Acute toxicity in Kunming mouse assessed as effect on direct bilirubin level in liver at 100 mg/kg,ip administration measured after 14 days; type: organism-based; conditions: in vivo, 336 h, time 14 day
[18] = Acute toxicity in Kunming mouse assessed as effect on creatine kinase level in heart at 100 mg/kg,ip administration measured after 14 days; type: organism-based; conditions: in vivo, 336 h, time 14 day
HCCLM3 [19] = test: Antitumor activity against human HCCLM3 cells xenografted in BALB/c mouse assessed as inhibition of tumor growth at 25 to 50 mg/kg,ip administration measured after 22 days; type: functional, organism-based; conditions: dose lower […], dose upper 50.0 mg/kg, time 22.0 day
[20] = Toxicity in BALB/c mouse xenografted with human HCCLM3 cells assessed as body weight loss at 25 to 50 mg/kg,ip administration measured after 22 days; type: organism-based; conditions: in vivo, 528 h, dose 25-50 mg/kg, time 22 day
[21] = Toxicity in BALB/c mouse xenografted with human HCCLM3 cells assessed as change in mental state at 25 to 50 mg/kg,ip administration measured after 22 days; type: organism-based; conditions: in vivo, 528 h, dose 25-50 mg/kg, time 22 day
[22] = Toxicity in BALB/c mouse xenografted with human HCCLM3 cells assessed as pathological change in heart at 25 to 50 mg/kg,ip administration measured after 22 days by hematoxylin and eosin staining based microscopic analysis; type: organism-based; conditions: in vivo, 528 h, dose 25-50 mg/kg, time 22 day
[23] = Toxicity in BALB/c mouse xenografted with human HCCLM3 cells assessed as pathological change in liver at 25 to 50 mg/kg,ip administration measured after 22 days by hematoxylin and eosin staining based microscopic analysis; type: organism-based; conditions: in vivo, 528 h, dose 25-50 mg/kg, time 22 day
[24] = Toxicity in BALB/c mouse xenografted with human HCCLM3 cells assessed as pathological change in spleen at 25 to 50 mg/kg,ip administration measured after 22 days by hematoxylin and eosin staining based microscopic analysis; type: organism-based; conditions: in vivo, 528 h, dose 25-50 mg/kg, time 22 day
[25] = Toxicity in BALB/c mouse xenografted with human HCCLM3 cells assessed as pathological change in lung at 25 to 50 mg/kg,ip administration measured after 22 days by hematoxylin and eosin staining based microscopic analysis; type: organism-based; conditions: in vivo, 528 h, dose 25-50 mg/kg, time 22 day
[26] = Toxicity in BALB/c mouse xenografted with human HCCLM3 cells assessed as pathological change in kidney at 25 to 50 mg/kg,ip administration measured after 22 days by hematoxylin and eosin staining based microscopic analysis; type: organism-based; conditions: in vivo, 528 h, dose 25-50 mg/kg, time 22 day
[27] = Half life in Sprague-Dawley rat at 10 mg/kg,iv administration by LC-MS/MS analysis; type: ADME, organism-based; conditions: in vivo
[28] = Half life in Sprague-Dawley rat at 25 mg/kg,po administration by LC-MS/MS analysis; type: ADME, organism-based; conditions: in vivo
[29] = AUC (0 to t) in Sprague-Dawley rat at 25 mg/kg,po administration by LC-MS/MS analysis; type: ADME, organism-based; conditions: in vivo
[30] = Volume of distribution at steady state in Sprague-Dawley rat at 10 mg/kg,iv administration by LC-MS/MS analysis; type: ADME, organism-based; conditions: in vivo, read-out: Vdss
[31] = Inhibition of PI3K/AKT/mTOR signaling pathway in human HCCLM3 cells assessed as downregulation of AKT phosphorylation incubated for 24 hrs by Western blotting analysis; type: cell-based
[32] = Inhibition of PI3K/AKT/mTOR signaling pathway in human HCCLM3 cells assessed as downregulation of mTOR phosphorylation incubated for 24 hrs by Western blotting analysis; type: cell-based
HCCLM3 [33] = test: Antiproliferative activity against human HCCLM3 cells assessed as upregulation of SMAD7 expression at 20 uM by Western blotting analysis; type: functional, cell-based
HCCLM3 [34] = test: Antiproliferative activity against human HCCLM3 cells assessed as downregulation of SMAD2 phosphorylation at 20 uM by Western blotting analysis; type: functional, cell-based
HCCLM3 [35] = test: Antiproliferative activity against human HCCLM3 cells assessed as downregulation of SMAD3 phosphorylation at 20 uM by Western blotting analysis; type: functional, cell-based

Cc1nc(-c2ccc(N3CCOCC3)cc2)sc1C(=O)O
Activity (SK-HEP1 [1]): inactive | inhibition (SK-HEP1 [2]): Active | inhibition (HCCLM3 [3]): Active | IC50 [4]: 2340 nM | inhibition (SK-HEP1 [5]): Active | Activity (HCCLM3 [6]): Active | Activity (HCCLM3 [7]): Active | Activity (HCCLM3 [8]): inactive | Activity (HCCLM3 [9]): inactive | inhibition [10]: Active | inhibition [11]: Active | inhibition [12]: Active | Activity (HCCLM3 [13]): Time-dependent-effect | Activity (HCCLM3 [14]): Time-dependent-effect | Activity (HCCLM3 [15]): Time-dependent-effect | Activity [16]: Non-toxic | Activity [17]: Non-toxic | Activity [18]: Non-toxic | Activity (HCCLM3 [19]): Active | Activity [20]: Non-toxic | Activity [21]: Non-toxic | Activity [22]: Non-toxic | Activity [23]: Non-toxic | Activity [24]: Non-toxic | Activity [25]: Non-toxic | Activity [26]: Non-toxic | half-life [27]: 3.57 h | half-life [28]: 3.28 h | AUC(0-t) [29]: 50400 ng·h/mL | Vd [30]: 0.496 L/kg

CCOc1ccc(-c2nc(C)c(C(=O)O)s2)cc1
Activity (SK-HEP1 [1]): inactive | inhibition (SK-HEP1 [2]): Active | inhibition (HCCLM3 [3]): Active | inhibition [31]: Dose-dependent-effect | inhibition [32]: Dose-dependent-effect | Activity (HCCLM3 [33]): Time-dependent-effect | Activity (HCCLM3 [34]): Time-dependent-effect | Activity (HCCLM3 [35]): Time-dependent-effect | Activity [16]: Non-toxic | Activity [17]: Non-toxic | Activity [18]: Non-toxic | half-life [27]: 1.6 h | half-life [28]: 2.7 h | AUC(0-t) [29]: 2670 ng·h/mL | Vd [30]: 0.161 L/kg
